Consider 22 compounds from patent US10703756B2, “Pyrrolo[2,3-D]pyrimidinyl, pyrrolo[2,3-B]pyrazinyl, pyrrolo[2,3-B]pyridinyl acrylamides and epoxides thereof” (Pfizer Inc., priority 2015, dated 2020).

Data set [1] can be described thus: Stability of JAK3 Covalent Inhibitors in Human Whole Blood. It is filed as in vitro ADME. To be noted: both sexes, 1 μM test compound, 37° C., 180 min incubation, read-out: Human blood stability t1/2. In outline:
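Parent remaining versus time was derived from LC-MS/MS peak area ratios to internal standard after acetonitrile quench. Incubations ran for 180 min at 37° C, in duplicate, with 1 μM test compound in pooled K2-EDTA human blood (two healthy donors).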

The target of another data set is T1, JAK3 enzyme (Homo sapiens, UniProt P52333).
T1 sequence (P52333 1-1124): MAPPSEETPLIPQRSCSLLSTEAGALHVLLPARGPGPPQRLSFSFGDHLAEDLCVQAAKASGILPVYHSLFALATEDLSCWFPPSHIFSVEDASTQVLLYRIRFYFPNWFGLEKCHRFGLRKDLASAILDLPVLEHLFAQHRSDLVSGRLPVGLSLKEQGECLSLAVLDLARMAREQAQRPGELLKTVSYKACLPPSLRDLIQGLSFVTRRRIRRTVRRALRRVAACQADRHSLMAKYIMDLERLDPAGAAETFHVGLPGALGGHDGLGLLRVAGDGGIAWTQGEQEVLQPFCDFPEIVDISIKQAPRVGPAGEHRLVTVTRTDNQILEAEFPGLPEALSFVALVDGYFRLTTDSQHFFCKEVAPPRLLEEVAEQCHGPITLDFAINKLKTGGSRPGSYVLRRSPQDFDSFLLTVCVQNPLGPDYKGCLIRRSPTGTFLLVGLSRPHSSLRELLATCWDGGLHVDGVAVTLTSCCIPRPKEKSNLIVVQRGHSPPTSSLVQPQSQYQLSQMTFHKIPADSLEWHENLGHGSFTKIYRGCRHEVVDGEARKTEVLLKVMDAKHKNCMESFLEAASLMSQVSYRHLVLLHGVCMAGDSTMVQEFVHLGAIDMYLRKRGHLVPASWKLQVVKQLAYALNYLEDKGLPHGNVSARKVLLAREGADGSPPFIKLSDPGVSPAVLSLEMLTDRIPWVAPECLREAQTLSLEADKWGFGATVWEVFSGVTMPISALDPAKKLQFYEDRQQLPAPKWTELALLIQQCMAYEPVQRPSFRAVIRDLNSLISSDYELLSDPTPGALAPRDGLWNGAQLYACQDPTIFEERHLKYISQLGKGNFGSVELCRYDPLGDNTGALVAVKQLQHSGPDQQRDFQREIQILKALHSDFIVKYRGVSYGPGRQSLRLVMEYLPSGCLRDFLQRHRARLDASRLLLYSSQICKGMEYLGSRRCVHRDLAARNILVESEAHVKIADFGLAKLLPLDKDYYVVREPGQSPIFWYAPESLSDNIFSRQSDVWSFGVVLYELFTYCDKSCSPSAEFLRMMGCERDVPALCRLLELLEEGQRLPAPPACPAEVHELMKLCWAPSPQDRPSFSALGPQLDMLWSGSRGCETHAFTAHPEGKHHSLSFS
Briefly: JAK Caliper Enzyme Assay at 1 mM ATP. It is filed as biochemical. A digest of the protocol: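 Read-out: microfluidic mobility-shift separation quantifying substrate peptide versus phosphopeptide. Compounds were tested as 11-point half-log dilutions, top 600 μM in DMSO before transfer. Enzyme level and reaction time were tuned for each prep so conversion stayed at 20%-30%.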

The IC50 is the concentration at which inhibition is half-maximal. Regarding `C=CC(=O)N1CC[C@H](Nc2cnc3[nH]cc(C(=O)NCC(C)CC(F)(F)F)c3n2)[C@H](OC)C1` (mixture of isomers) [Example 328, Racemic-2-{[(3R,4S)-1-acryloyl-3-methoxypiperidin-4-yl]amino}-N-(4,4,4-trifluoro-2-methylbutyl)-5H-pyrrolo[2,3-b]pyrazine-7-carboxamide], in data set [1], the half-life at 1 μM amounted to 4.2 h. Moreover, on JAK3 enzyme, the IC50 is 0.037 µM.
The like results for `C=CC(=O)N1CCN(c2cnc3[nH]cc(C(=O)N[C@H](CC)CC#N)c3n2)C[C@@H]1CC(C)C` [Example 314, 2-[(3S)-4-acryloyl-3-(2-methylpropyl)piperazin-1-yl]-N-[(2R)-1-cyanobutan-2-yl]-5H-pyrrolo[2,3-b]pyrazine-7-carboxamide] were, in that order, 3.12 h and 0.03 µM.
On to `C=CC(=O)N1CCC[C@H](Nc2cnc3[nH]cc(C(=O)NCC)c3n2)C1` (single isomer, unassigned) [Example 36], for which the half-life at 1 μM in data set [1] is greater than 6 h. Moreover, the IC50 against JAK3 enzyme worked out at 0.054 µM.
In the case of `C=CC(=O)N1CC[C@H](Nc2cnc3[nH]cc(C(=O)NCCCC(F)(F)F)c3n2)[C@H](OC)C1` [Example 319, 2-{[(3R,4S)-1-acryloyl-3-methoxypiperidin-4-yl]amino}-N-(4,4,4-trifluorobutyl)-5H-pyrrolo[2,3-b]pyrazine-7-carboxamide], the half-life at 1 μM in data set [1] worked out at 5.57 h. Besides, the IC50 on JAK3 enzyme was found to be 0.045 µM.
For `C=CC(=O)N1CCC(Nc2cnc3[nH]cc(C(=O)NCc4ccccc4F)c3n2)CC1` [Example 196, 2-[(1-acryloylpiperidin-4-yl)amino]-N-(2-fluorobenzyl)-5H-pyrrolo[2,3-b]pyrazine-7-carboxamide], in that order: greater than 6 h and 0.005 µM.
With `C=CC(=O)N1C[C@H](Nc2ncnc3[nH]ccc23)CC[C@@H]1CNC(C)=O` (racemic) [Example 88, rac-N-(((2R,5R)-5-((7H-pyrrolo[2,3-d]pyrimidin-4-yl)amino)-1-acryloylpiperidin-2-yl)methyl)acetamide], the half-life at 1 μM in data set [1] was greater than 6 h. At JAK3 enzyme, the midpoint of inhibition, the IC50, lay at 0.137 µM.
As for `C=CC(=O)N1CC[C@@H](Oc2cnc3[nH]cc(C(=O)N[C@@H](C)COC)c3n2)C[C@@H]1C` (single isomer, unassigned) [Example 73], the half-life at 1 μM in data set [1] was greater than 6 h. Besides, half-maximal inhibition at JAK3 enzyme (IC50) required 0.033 µM.
Regarding `C=CC(=O)N1CCN(c2cnc3[nH]cc(C(=O)N[C@@H](C)COC)c3n2)CC1(C)C` [Example 298, 2-(4-acryloyl-3,3-dimethylpiperazin-1-yl)-N-[(2S)-1-methoxypropan-2-yl]-5H-pyrrolo[2,3-b]pyrazine-7-carboxamide], the half-life at 1 μM in data set [1] was greater than 6 h. The IC50 at JAK3 enzyme turned out to be 0.069 µM.
As for `C=CC(=O)N1CCC(Nc2cnc3[nH]cc(C(=O)NCc4ccc(F)c(C#N)c4)c3n2)CC1` [Example 189, 2-[(1-acryloylpiperidin-4-yl)amino]-N-(3-cyano-4-fluorobenzyl)-5H-pyrrolo[2,3-b]pyrazine-7-carboxamide], the half-life at 1 μM in data set [1] was greater than 6 h. In addition, at JAK3 enzyme, the midpoint of inhibition, the IC50, lay at 0.006 µM.
Turning to `C=CC(=O)N1C[C@H](COCCC#N)C[C@H](Nc2ncnc3[nH]ccc23)C1` [Example 101, 3-{[(3R,5S)-1-Acryloyl-5-(7H-pyrrolo[2,3-d]pyrimidin-4-ylamino)piperidin-3-yl]methoxy}propanenitrile], the half-life at 1 μM in data set [1] turned out to be 1.9 h. For the same compound, the IC50 at JAK3 enzyme amounted to 0.028 µM.
On to `C=CC(=O)N1CC[C@@H](Nc2cnc3[nH]cc(C(=O)NCC)c3n2)C[C@@H]1C` (single isomer, unassigned) [Example 42], for which the half-life at 1 μM in data set [1] worked out at 4.68 h. This compound yielded an IC50 against JAK3 enzyme of 0.05 µM.
On to `C=CC(=O)N1CCC(Oc2cnc3[nH]cc(C(=O)N[C@@H]4CCC[C@H]4F)c3n2)CC1` [Example 229, 2-[(1-acryloylpiperidin-4-yl)oxy]-N-[(1R,2R)-2-fluorocyclopentyl]-5H-pyrrolo[2,3-b]pyrazine-7-carboxamide], for which the half-life at 1 μM in data set [1] is 5.93 h. This compound also gave an IC50 against JAK3 enzyme of 0.06 µM.
On to `C=CC(=O)N1CCC(Oc2cnc3[nH]cc(C(=O)NC(C)C4CC4)c3n2)CC1` (racemic) [Example 220, Racemic-2-[(1-acryloylpiperidin-4-yl)oxy]-N-(1-cyclopropylethyl)-5H-pyrrolo[2,3-b]pyrazine-7-carboxamide], for which the half-life at 1 μM in data set [1] was found to be 3.7 h. Also, the IC50 against JAK3 enzyme came to 0.018 µM.
Take `C=CC(=O)N1CCC(Oc2cnc3[nH]cc(C(=O)N[C@@H](C)COC)c3n2)CC1` [Example 228, 2-[(1-acryloylpiperidin-4-yl)oxy]-N-[(2S)-1-methoxypropan-2-yl]-5H-pyrrolo[2,3-b]pyrazine-7-carboxamide]: the half-life at 1 μM in data set [1] worked out at 4.23 h. Also, half-maximal inhibition at JAK3 enzyme (IC50) was put at 0.018 µM.
The like results for `C=CC(=O)N1CCN(c2cnc3[nH]cc(C(=O)N[C@H](C)COC)c3n2)CC1(C)C` [Example 327] were, in that order, greater than 6 h and 0.056 µM.
Take `C=CC(=O)N1CC[C@@H](Nc2cnc3[nH]cc(C(=O)NCC)c3n2)[C@@H](C)C1` (racemic) [Example 37, Cis-racemic-2-{[(3S,4R)-1-acryloyl-3-methylpiperidin-4-yl]amino}-N-ethyl-5H-pyrrolo[2,3-b]pyrazine-7-carboxamide]: the half-life at 1 μM in data set [1] is 5.08 h. This compound registered an IC50 against JAK3 enzyme of 0.051 µM.
As for `C=CC(=O)N1CCC(Oc2cnc3[nH]cc(C(=O)NC45CC(C4)C5)c3n2)CC1` [Example 200, 2-[(1-acryloylpiperidin-4-yl)oxy]-N-(bicyclo[1.1.1]pent-1-yl)-5H-pyrrolo[2,3-b]pyrazine-7-carboxamide], the half-life at 1 μM in data set [1] was greater than 6 h. This compound returned an IC50 on JAK3 enzyme of 0.046 µM.
The like results for `C=CC(=O)N1CCC(Oc2cnc3[nH]cc(C(=O)NC4CCCC4(F)F)c3n2)CC1` (centres unmarked) [Example 219, 2-[(1-acryloylpiperidin-4-yl)oxy]-N-(2,2-difluorocyclopentyl)-5H-pyrrolo[2,3-b)pyrazine-7-carboxamide] were, in that order, 4.05 h and 0.025 µM.
Take `C=CC(=O)N1CC[C@H](Nc2cnc3[nH]cc(C(=O)NCC)c3n2)C[C@H]1C` (racemic) [Example 40, Trans-racemic-2-{[(2R,4S)-1-acryloyl-2-methylpiperidin-4-yl]amino}-N-ethyl-5H-pyrrolo[2,3-b]pyrazine-7-carboxamide]: the half-life at 1 μM in data set [1] stood at 4.05 h. Also, the IC50 against JAK3 enzyme worked out at 0.024 µM.
Consider `C=CC(=O)N1CC[C@@H](Nc2cnc3[nH]cc(C(=O)N[C@H](C)COC)c3n2)[C@@H](OC)C1` [Example 331, 2-{[(3S,4R)-1-acryloyl-3-methoxypiperidin-4-yl]amino}-N-[(2R)-1-methoxypropan-2-yl]-5H-pyrrolo[2,3-b]pyrazine-7-carboxamide], for which the half-life at 1 μM in data set [1] was 5.52 h. This compound also gave an IC50 against JAK3 enzyme of 0.042 µM.
For the compound `C=CC(=O)N1CCC(Oc2cnc3[nH]cc(C(=O)NC4CCCC4)c3n2)CC1` (racemic) [Example 204, Racemic-2-[(1-acryloylpiperidin-4-yl)oxy]-N-cyclopentyl-5H-pyrrolo[2,3-b]pyrazine-7-carboxamide], the half-life at 1 μM in data set [1] is greater than 6 h. This compound also gave an IC50 on JAK3 enzyme of 0.049 µM.
Consider `C=CC(=O)N1CCC(Oc2cnc3[nH]cc(C(=O)N[C@H](C)CC)c3n2)CC1` [Example 227, 2-[(1-acryloylpiperidin-4-yl)oxy]-N-[(2R)-butan-2-yl]-5H-pyrrolo[2,3-b]pyrazine-7-carboxamide], for which the half-life at 1 μM in data set [1] was determined as 4.5 h. On JAK3 enzyme, this compound returned an IC50 of 0.022 µM.
